Assay results published in US7423020B2, “Treatment of mood disorders by administration of SMR1” (Institut Pasteur, priority 2001, dated 2008).
Where a SMILES comes first, the peptide text is derived from it.

What was measured:
NEP = molecular target: T1, NEP (Rattus norvegicus, UniProt P07861); experiment: Met-enkephalin hydrolysis by rat spinal cord slices and membrane preparations, RP-HPLC analysis; format: biochemical; conditions: 10 μM; spinal cord slices; 20 min at 25° C.; Met-enkephalin 10 μM; read-out: inhibition of Met-enkephalin degradation (RP-HPLC)
T1 construct: incubations of membrane and fresh tissue slice preparations from nervous tissues; from tissue; host or cells: rat spinal cord (dorsal zone), fresh slices or 100 000 x g membrane fraction
T1 sequence (P07861 1-750): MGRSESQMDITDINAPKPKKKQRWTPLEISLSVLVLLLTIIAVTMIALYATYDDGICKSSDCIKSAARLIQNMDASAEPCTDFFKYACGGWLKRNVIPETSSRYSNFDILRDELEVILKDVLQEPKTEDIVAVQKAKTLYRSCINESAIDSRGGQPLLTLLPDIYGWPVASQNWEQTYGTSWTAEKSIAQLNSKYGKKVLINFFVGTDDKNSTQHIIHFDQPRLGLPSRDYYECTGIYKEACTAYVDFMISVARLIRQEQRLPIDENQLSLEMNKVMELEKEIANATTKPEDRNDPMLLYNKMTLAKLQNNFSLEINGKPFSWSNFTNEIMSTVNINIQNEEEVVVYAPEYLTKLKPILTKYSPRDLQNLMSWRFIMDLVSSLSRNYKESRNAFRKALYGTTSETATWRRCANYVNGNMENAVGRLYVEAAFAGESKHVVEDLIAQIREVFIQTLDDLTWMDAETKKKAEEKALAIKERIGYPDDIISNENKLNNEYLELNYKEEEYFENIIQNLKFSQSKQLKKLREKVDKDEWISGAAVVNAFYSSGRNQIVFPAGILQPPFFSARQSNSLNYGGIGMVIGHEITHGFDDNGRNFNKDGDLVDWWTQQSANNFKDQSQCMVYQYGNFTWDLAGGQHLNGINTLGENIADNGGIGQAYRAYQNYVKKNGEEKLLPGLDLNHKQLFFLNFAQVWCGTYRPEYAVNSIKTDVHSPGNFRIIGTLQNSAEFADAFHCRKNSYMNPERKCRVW
Description: The organs are rapidly removed, dissected on ice, freed of nerve fibers and of adipose tissues and then washed in cold oxygenated glucose-and bicarbonate-containing Krebs Ringer (KRBG) solution, whose composition is the following: 120 mM NaCl-5 mM KCl-1.2 mM KH2PO4-27.5 mM NaHCO3-2.6 mM CaCl2-0.67 mM MgSO4-5.9 mM glucose. The slices of tissues are prepared either manually with the aid of a scalpel (1-2 mm thick), or mechanically with the aid of a “Tissue Chopper” (1 mm thick). Slices are then dispersed into reaction tubes where they are subjected to three successive washes in ice-cold oxygenated KRBG. […] The organs dissected out and washed in ice-cold KRBG are homogenized at 4° C. in 10 volumes (vol./wt.) of 50 mM Tris/HCl buffered at pH 7.2, using a Teflon-glass homogenizer (3×5 sec.). A first centrifugation of 5 min. at 1000×g and 4° C. makes it possible to remove the tissular debris and the nuclei in the pellet. A second centrifugation of the supernatant at 100 000×g and 5° C. concentrates the membrane fraction into the pellet, which will be superficially washed three times with cold Tris/HCl buffer and resuspended in fresh buffer using a Kontes homogenizer, aliquoted and stored at -80° C. while waiting to be used as enzyme source, at least until three months. For the experiments of analysis of the NEP peptidase activity, an ex vivo model using incubations of membrane and fresh tissue slice preparations from nervous tissues that are known to be appropriate for exploring NEP peptidase activity: i.e. the dorsal zone of rat spinal cord, was first developed. The metabolism rate of the NEP-sensitive peptides was measured using the both NEP substrates involved in the signaling of the nociceptive response: the neuropeptides Met-enkephalin and Substance P. […] (NEN, 12.5-25 nM) were used. The objective was to measure the NEP-specific endoproteolysis of these substrates. […] Furthermore, for studying the functional role of […] NO: 1), the reaction was carried out in the presence of the SMR1-peptide alone or combined with specific inhibitors of membrane peptidases which could inactivate the […] NO: 1) peptide by cleaving its C-terminal end: an inhibitor of carboxypeptidase […], 10 μM, Sigma) and an inhibitor of dipeptidylpeptidase IV (DPPIV inhibitor, 10 μM, Roche). […] Samples are kept at -30° C. until the measurement of their intact substrate and its metabolites content. The membrane preparations are preincubated in 50 mM Tris/HCl buffered at pH 7.2 and containing 10 μM Bestatin, at 25, 30 or 37° C. in constantly shaken water, in the presence or in the absence of NEP inhibitor. […] Samples are kept at -30° C. until the measurement of their intact substrate and its metabolites content. HPLC is a highly resolutive procedure that allows one to isolate, and detect by coupled spectrophotometer analysis, the non-radioactive peptides whose concentration is at least 1 to 10 μM. The C-18 RP-HPLC is based on the same principle as the C-18 Sep-Pak cartridge. The chromatographic analyses were used to study the hydrolysis of Met-Enkephalin, that were done on a C-18 LUNA analytical column (150×4.6 mm inner diameter, AIT) packed with 5 μm-diameter beads. […] Their identification and relative quantification (peak height) are checked by continuously monitoring the UV absorbance at 254 nm of column outflow. In first series of experiment, the slices and the membrane preparations of spinal cord tissues were incubated at 30° C. in a 1 ml final volume of KRBG, and at 37° C. in a 0.25 ml final volume of Tris/HCl 50 mM, pH 7.2, respectively.

adult male rats = conditions: PCT patent application WO 01/00 221; cited from earlier work

N=C(N)NCCC[C@H](NC(=O)[C@@H]1CCCN1C(=O)[C@H](CC(N)=O)NC(=O)[C@H](Cc1c[nH]cn1)NC(=O)[C@@H](N)CCC(N)=O)C(=O)O [SMR1-QHNPR, QHNPR] (H-QHNPR-OH; N-terminus and C-terminus assumed)
inhibition at 10 µM (NEP): 70% | effect on sexual behavior and aggressive impulse behavior (adult male rats): dose-dependent improvement on the sexual behavior of adult male rats with a loss of the aggressive impulse behavior
